Test results taken from ChEMBL document CHEMBL1201862, “PubChem BioAssay data set” (2004).
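All cell lines were grown in 96-well plates and treated with compound for 48 hours. GI50 = concentration required for 50% inhibition of growth.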 Active and inactive are the calls of the source. No stated cut-off is given here; in the data, active = GI50 up to about 1.1 µM and inactive = higher.

Columns and labels:
Assay in all cases: NCI tumour cell line growth inhibition, 48 h
[1] = tested on: A549
[2] = tested on: COLO 205
[3] = tested on: EKVX
[4] = tested on: Hs-578T
[5] = tested on: LOX IMVI
[6] = tested on: MDA-MB-231
[7] = tested on: MDA-N
[8] = tested on: MOLT-4
[9] = tested on: NCI-H226
[10] = tested on: NCI/ADR-RES
[11] = tested on: PC-3
[12] = tested on: SF-268
[13] = tested on: SK-MEL-5
[14] = tested on: SR
[15] = tested on: T47D
[16] = tested on: TK-10
[17] = tested on: DU-145

| Compound | GI50 [1] | GI50 [2] | GI50 [3] | GI50 [4] | GI50 [5] | GI50 [6] | GI50 [7] | GI50 [8] | GI50 [9] | GI50 [10] | GI50 [11] | GI50 [12] | GI50 [13] | GI50 [14] | GI50 [15] | GI50 [16] | GI50 [17] |
| --- | --- | --- | --- | --- | --- | --- | --- | --- | --- | --- | --- | --- | --- | --- | --- | --- | --- |
| COc1ccc2c(ccc3c(COC(=O)NC(C)C)c(COC(=O)NC(C)C)n(C)c32)c1 | 11.3 µM (inactive) | 10.8 µM (inactive) | 16.4 µM (inactive) | 13.7 µM (inactive) | 4.62 µM (inactive) | 16.3 µM (inactive) | 12.3 µM (inactive) | 3.34 µM (inactive) | 3.08 µM (inactive) | 5.01 µM (inactive) | 11.1 µM (inactive) | 5.19 µM (inactive) | 13.2 µM (inactive) | 0.655 µM (active) | 7.52 µM (inactive) | 11.2 µM (inactive) | – |
| COC(=O)Nc1nc2cc(NS(=O)(=O)c3ccc(F)cc3)ccc2[nH]1 | 37.2 µM (inactive) | 5.25 µM (inactive) | 31.3 µM (inactive) | 2.07 µM (inactive) | 48.1 µM (inactive) | 21.9 µM (inactive) | 2.14 µM (inactive) | 6.75 µM (inactive) | 77.8 µM (inactive) | 13.3 µM (inactive) | 22.9 µM (inactive) | 72.6 µM (inactive) | 5.77 µM (inactive) | – | > 100 µM (inactive) | 14.4 µM (inactive) | 39.2 µM (inactive) |
| CN1CCN(c2ccc3nc(-c4cc(O)c5c(nc(CO)n5C)c4O)[nH]c3n2)CC1 | 69.2 µM (inactive) | 15.9 µM (inactive) | 22.9 µM (inactive) | > 100 µM (inactive) | 17.1 µM (inactive) | 22.4 µM (inactive) | 34.2 µM (inactive) | 17.6 µM (inactive) | 22.7 µM (inactive) | > 100 µM (inactive) | 32.3 µM (inactive) | 48.1 µM (inactive) | – | – | 18.7 µM (inactive) | – | 43.8 µM (inactive) |
| CN1/C(=C/C=C/C=C/C=C2C(=O)c3ccccc3C2=O)C(C)(C)c2ccccc21 | 7 µM (inactive) | 26.6 µM (inactive) | 30.8 µM (inactive) | 29.9 µM (inactive) | 40.3 µM (inactive) | 10.3 µM (inactive) | 35.6 µM (inactive) | – | 51.9 µM (inactive) | 76.2 µM (inactive) | – | 43.3 µM (inactive) | 18.5 µM (inactive) | > 100 µM (inactive) | 6.76 µM (inactive) | > 100 µM (inactive) | 43.4 µM (inactive) |
| CCNc1ccc2c(c1)Cc1ccccc1-2 | 73.5 µM (inactive) | 64.9 µM (inactive) | 32.4 µM (inactive) | 65.2 µM (inactive) | 32.3 µM (inactive) | 64.1 µM (inactive) | – | 12.9 µM (inactive) | 54.7 µM (inactive) | > 100 µM (inactive) | 35.4 µM (inactive) | 46.2 µM (inactive) | 25.8 µM (inactive) | 14.5 µM (inactive) | > 100 µM (inactive) | 33.1 µM (inactive) | 59.8 µM (inactive) |
| CCSC1=N/C(=C\c2ccco2)C(Nc2ccc(C)cc2)=N1 | > 100 µM (inactive) | > 100 µM (inactive) | > 100 µM (inactive) | > 100 µM (inactive) | > 100 µM (inactive) | > 100 µM (inactive) | > 100 µM (inactive) | > 100 µM (inactive) | > 100 µM (inactive) | > 100 µM (inactive) | > 100 µM (inactive) | > 100 µM (inactive) | > 100 µM (inactive) | > 100 µM (inactive) | – | > 100 µM (inactive) | > 100 µM (inactive) |
| COc1cc(OC)cc(-n2c(N)c(-c3nc4ccccc4s3)c3ccc([N+](=O)[O-])cc3c2=O)c1 | – | 30.4 µM (inactive) | – | 27.7 µM (inactive) | > 100 µM (inactive) | 21.3 µM (inactive) | > 100 µM (inactive) | – | 25.7 µM (inactive) | 24.9 µM (inactive) | – | 57 µM (inactive) | 45.8 µM (inactive) | 24.3 µM (inactive) | 17.2 µM (inactive) | 13.3 µM (inactive) | 43.8 µM (inactive) |
| C[C@@H](c1ccccc1)N(CC#N)C1CCC[C@H]1O (stereo partly specified) | > 100 µM (inactive) | > 100 µM (inactive) | > 100 µM (inactive) | – | > 100 µM (inactive) | – | – | > 100 µM (inactive) | > 100 µM (inactive) | – | – | > 100 µM (inactive) | > 100 µM (inactive) | – | – | > 100 µM (inactive) | – |
| COc1ccc(-c2cc(=O)c3c(OC)c(OC)c(OC)cc3o2)cc1 | 27.1 µM (inactive) | 22.1 µM (inactive) | 37.4 µM (inactive) | 35.6 µM (inactive) | 28.2 µM (inactive) | 43.8 µM (inactive) | 40.6 µM (inactive) | 18 µM (inactive) | 27 µM (inactive) | 28.2 µM (inactive) | – | 31.1 µM (inactive) | 13.2 µM (inactive) | 11.3 µM (inactive) | 17.8 µM (inactive) | 36 µM (inactive) | 25.5 µM (inactive) |
